Reference: US11492345B2, “Compounds and their methods of use” (Praxis Precision Medicines, Inc., priority 2017, dated 2022)

Target: T1, human Nav1.6 (hNav1.6) (Homo sapiens, UniProt Q9UQD0)
T1 construct: expressed in transfected cells; host or cells: HEK-293 (G418 selection)
Assay: Modulation of late sodium current (INaL), PatchXpress electrophysiology
Format: cell-based
Conditions: HEK293; 1 μM compound; HEK-293 cells expressing recombinant human Nav channel; late current evoked by 300 nM ATX-II; steady-state inhibition; read-out: INaL v1.6 (1 μM, % Inhibition)
Experimental: Functional characterization of exemplary compounds to modulate INaL expressed by the Nav1.6 voltage-gated sodium channel was accomplished using the PatchXpress™ high throughput electrophysiology platform (Molecular Devices, Sunnyvale, Calif.). HEK-293 cells expressing recombinant, human Nav1.6 (hNav1.6) were grown in DMEM/high-glucose Dulbecco's modified, 10% FBS, 2 mM sodium pyruvate, 10 mM HEPES and 400 μg/mL G418. Cells were grown to 50%-80% confluency prior to harvesting. Trypsinized cells were washed, allowed to recover for 1 hour and then resuspended in extracellular recording solution at a concentration of 1×10^6 cells/ml. The onboard liquid handling facility of the PatchXpress was used for dispensing cells and applying test compounds. Nav late currents were evoked by the application of 300 nM ATX-II. INaL was evoked by depolarizing pulses to 0 mV for 200 ms from a non-inactivating holding potential (e.g., −120 mV) at a frequency of 0.1 Hz. INaL amplitude and stability were determined by analyzing the mean current amplitude over the final 20 ms of the test pulse. […] Percent steady-state inhibition of INaL was calculated as: [(INaL_compound)/(INaL_control)]*100, where INaL_compound and INaL_control represent INaL recorded in the presence or absence of compound, respectively.

T1 sequence (Q9UQD0 whole entry): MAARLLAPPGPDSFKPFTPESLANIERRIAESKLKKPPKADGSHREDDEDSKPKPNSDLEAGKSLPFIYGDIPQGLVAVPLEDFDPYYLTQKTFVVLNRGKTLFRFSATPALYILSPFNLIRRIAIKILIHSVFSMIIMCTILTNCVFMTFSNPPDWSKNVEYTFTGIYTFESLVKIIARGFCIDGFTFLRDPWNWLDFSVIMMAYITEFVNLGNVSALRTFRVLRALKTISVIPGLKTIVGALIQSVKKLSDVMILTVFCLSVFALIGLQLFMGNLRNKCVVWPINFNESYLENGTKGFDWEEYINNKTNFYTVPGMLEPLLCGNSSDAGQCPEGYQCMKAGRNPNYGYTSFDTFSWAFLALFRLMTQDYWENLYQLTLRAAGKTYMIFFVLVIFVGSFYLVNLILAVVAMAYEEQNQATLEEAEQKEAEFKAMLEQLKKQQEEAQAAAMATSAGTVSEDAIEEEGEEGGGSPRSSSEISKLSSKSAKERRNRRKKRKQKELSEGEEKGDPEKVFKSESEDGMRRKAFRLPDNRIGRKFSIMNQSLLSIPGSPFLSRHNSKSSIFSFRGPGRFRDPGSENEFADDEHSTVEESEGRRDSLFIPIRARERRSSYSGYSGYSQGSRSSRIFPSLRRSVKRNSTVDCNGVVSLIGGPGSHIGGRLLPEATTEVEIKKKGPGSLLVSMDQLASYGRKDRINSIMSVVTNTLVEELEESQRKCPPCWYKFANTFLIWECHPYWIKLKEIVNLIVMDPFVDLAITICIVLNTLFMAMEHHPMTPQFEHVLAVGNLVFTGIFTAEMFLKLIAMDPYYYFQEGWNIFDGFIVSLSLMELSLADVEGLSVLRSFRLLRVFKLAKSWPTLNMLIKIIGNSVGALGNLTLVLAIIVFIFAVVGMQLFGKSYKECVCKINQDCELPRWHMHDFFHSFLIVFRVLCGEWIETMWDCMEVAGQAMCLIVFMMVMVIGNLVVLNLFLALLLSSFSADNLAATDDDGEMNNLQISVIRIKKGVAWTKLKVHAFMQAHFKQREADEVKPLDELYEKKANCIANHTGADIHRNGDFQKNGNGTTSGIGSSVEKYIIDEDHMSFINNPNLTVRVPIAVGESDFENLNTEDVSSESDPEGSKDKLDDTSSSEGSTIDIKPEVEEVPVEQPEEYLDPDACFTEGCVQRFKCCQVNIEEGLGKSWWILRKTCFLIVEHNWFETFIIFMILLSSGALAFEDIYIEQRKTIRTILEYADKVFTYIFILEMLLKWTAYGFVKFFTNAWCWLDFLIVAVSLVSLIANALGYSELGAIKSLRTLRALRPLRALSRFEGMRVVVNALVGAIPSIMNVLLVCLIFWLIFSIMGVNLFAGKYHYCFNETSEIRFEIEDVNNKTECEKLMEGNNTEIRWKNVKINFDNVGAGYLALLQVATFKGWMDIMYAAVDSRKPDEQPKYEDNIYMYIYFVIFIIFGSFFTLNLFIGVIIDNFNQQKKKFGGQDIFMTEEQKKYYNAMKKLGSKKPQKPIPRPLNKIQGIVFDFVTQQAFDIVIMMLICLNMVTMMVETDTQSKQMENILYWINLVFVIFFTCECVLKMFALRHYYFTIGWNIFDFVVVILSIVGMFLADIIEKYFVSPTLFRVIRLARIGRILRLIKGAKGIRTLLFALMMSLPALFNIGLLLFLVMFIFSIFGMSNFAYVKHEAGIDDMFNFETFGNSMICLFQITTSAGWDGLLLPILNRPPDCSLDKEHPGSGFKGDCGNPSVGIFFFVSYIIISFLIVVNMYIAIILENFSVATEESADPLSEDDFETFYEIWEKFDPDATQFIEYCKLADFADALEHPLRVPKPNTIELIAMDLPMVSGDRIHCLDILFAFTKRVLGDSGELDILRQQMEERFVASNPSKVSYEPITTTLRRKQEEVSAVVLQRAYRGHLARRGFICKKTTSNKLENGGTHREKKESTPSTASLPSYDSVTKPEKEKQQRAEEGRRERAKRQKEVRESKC

SMILES	inhibition at 1 µM [%]
Cc1cc(OC(F)(F)F)ccc1-c1ccc2oc(=O)n(CCc3ncccn3)c2n1 [Compound 121]	30 to 70
O=c1oc2ccc(-c3cnc(OCC(F)(F)F)c(F)c3)nc2n1CCc1ncccn1 [Compound 122]	< 30
O=c1oc2ccc(-c3ccc(OC(F)(F)F)cc3)nc2n1CCc1cnccn1 [Compound 123]	> 70
O=c1oc2ccc(-c3ccc(OC(F)(F)F)cc3)nc2n1CCc1cncnc1 [Compound 124]	> 70
O=c1oc2ccc(-c3ccc(OC(F)(F)F)cc3)nc2n1Cc1ccncn1 [Compound 141]	30 to 70
O=c1oc2ccc(-c3ccc(OC(F)(F)F)cc3)nc2n1Cc1cnccn1 [Compound 143]	> 70
O=c1oc2ccc(-c3ccc(OC(F)(F)F)cc3)nc2n1CCc1ccncn1 [Compound 146]	> 70
Cc1noc(C)c1Cn1c(=O)oc2ccc(-c3ccc(OC(F)(F)F)cc3)nc21 [Compound 152]	< 30
Cc1nnc(Cn2c(=O)oc3ccc(-c4ccc(OC(F)(F)F)cc4)nc32)o1 [Compound 153]	30 to 70
Cc1oncc1Cn1c(=O)oc2ccc(-c3ccc(OC(F)(F)F)cc3)nc21 [Compound 154]	> 70
Cc1nnc(Cn2c(=O)oc3ccc(-c4ccc(OC(F)(F)F)cc4)nc32)s1 [Compound 155]	> 70
Cn1cnc(Cn2c(=O)oc3ccc(-c4ccc(OC(F)(F)F)cc4)nc32)n1 [Compound 157]	30 to 70
Cn1nccc1Cn1c(=O)oc2ccc(-c3ccc(OC(F)(F)F)cc3)nc21 [Compound 158]	30 to 70
Cc1nc(Cn2c(=O)oc3ccc(-c4ccc(OC(F)(F)F)cc4)nc32)co1 [Compound 159]	> 70
Cc1cc(Cn2c(=O)oc3ccc(-c4ccc(OC(F)(F)F)cc4)nc32)on1 [Compound 160]	> 70
Cc1noc(Cn2c(=O)oc3ccc(-c4ccc(OC(F)(F)F)cc4)nc32)n1 [Compound 161]	> 70
Cc1nc(Cn2c(=O)oc3ccc(-c4ccc(OC(F)(F)F)cc4)nc32)no1 [Compound 162]	> 70
O=c1oc2ccc(-c3ccc(OC(F)(F)F)cc3)nc2n1Cc1cn[nH]c1 [Compound 165]	30 to 70
Cc1n[nH]cc1Cn1c(=O)oc2ccc(-c3ccc(OC(F)(F)F)cc3)nc21 [Compound 167]	< 30

Other lines, results leading:

inhibition at 1 µM [%]	SMILES
> 70	O=c1oc2ccc(-c3ccc(OC(F)(F)F)cc3)cc2n1C[C@H]1CCCO1 [Compound 105]
> 70	CC(=O)N1CCC[C@@H]1Cn1c(=O)oc2ccc(-c3ccc(OC(F)(F)F)cc3)cc21 [Compound 109]
30 to 70	CC(=O)N1CCC[C@H]1Cn1c(=O)oc2ccc(-c3ccc(OC(F)(F)F)cc3)cc21 [Compound 111]
30 to 70	CS(=O)(=O)N1CCC[C@H]1Cn1c(=O)oc2ccc(-c3ccc(OC(F)(F)F)cc3)cc21 [Compound 113]
< 30	O=C(Cn1c(=O)oc2ccc(-c3ccc(OC(F)(F)F)cc3)cc21)N1CC[C@@H](O)C1 [Compound 114]
< 30	O=C(Cn1c(=O)oc2ccc(-c3ccc(OC(F)(F)F)cc3)cc21)N1CC[C@H](O)C1 [Compound 115]
> 70	O=c1oc2ccc(-c3ccc(OC(F)(F)F)cc3)cc2n1CCc1cncnc1 [Compound 117]
< 30	CS(=O)(=O)N1CCC[C@@H]1Cn1c(=O)oc2ccc(-c3ccc(OC(F)(F)F)cc3)cc21 [Compound 118]
> 70	O=C(Cn1c(=O)oc2ccc(-c3ccc(OC(F)(F)F)cc3)nc21)N1CCCCC1 [Compound 119]
> 70	O=c1oc2ccc(-c3ccc(OC(F)(F)F)cc3)cc2n1CCc1cnccn1 [Compound 120]
< 30	CO[C@H]1CCN(C(=O)Cn2c(=O)oc3ccc(-c4ccc(OC(F)(F)F)cc4)cc32)C1 [Compound 125]
30 to 70	CO[C@@H]1CCN(C(=O)Cn2c(=O)oc3ccc(-c4ccc(OC(F)(F)F)cc4)cc32)C1 [Compound 126]
> 70	O=c1oc2ccc(-c3ccc(OC(F)(F)F)cc3)cc2n1Cc1cnccn1 [Compound 131]
> 70	O=c1oc2ccc(-c3ccc(OC(F)(F)F)cc3)cc2n1Cc1ccncn1 [Compound 132]
> 70	C[C@@H]1CCCN1C(=O)Cn1c(=O)oc2ccc(-c3ccc(OC(F)(F)F)cc3)nc21 [Compound 134]
< 30	O=c1oc2ccc(-c3ccc(OC(F)F)cc3)nc2n1CCc1ncccn1 [Compound 136]
< 30	O=C(Cn1c(=O)oc2ccc(-c3cnc(OCC(F)(F)F)c(F)c3)nc21)N1CCCC1 [Compound 137]
< 30	O=C1CCCN1CCn1c(=O)oc2ccc(-c3ccc(OC(F)(F)F)cc3)nc21 [Compound 142]
< 30	Cc1cc(OC(F)(F)F)ccc1-c1ccc2oc(=O)n(CC(=O)N3CCCC3)c2n1 [Compound 144]
> 70	O=c1oc2ccc(-c3ccc(OC(F)(F)F)cc3)cc2n1CCc1ccncn1 [Compound 147]
< 30	O=C(Cn1c(=O)oc2ccc(-c3ccc(OC(F)F)cc3)cc21)N1CCCC1 [Compound 148]
> 70	Cn1cc(Cn2c(=O)oc3ccc(-c4ccc(OC(F)(F)F)cc4)nc32)cn1 [Compound 151]
> 70	Cc1cc(Cn2c(=O)oc3ccc(-c4ccc(OC(F)(F)F)cc4)nc32)no1 [Compound 156]
< 30	Cn1cnnc1Cn1c(=O)oc2ccc(-c3ccc(OC(F)(F)F)cc3)nc21 [Compound 163]
30 to 70	Cn1ncnc1Cn1c(=O)oc2ccc(-c3ccc(OC(F)(F)F)cc3)nc21 [Compound 164]
